Key:
[1] = target: T1, Low molecular weight phosphotyrosine protein phosphatase (Homo sapiens, UniProt P24666); assay: Inhibition of recombinant human ACP1 using pNPP as substrate preincubated with compound for 10 mins followed by substrate addition and measured by absorbance based assay
T1 sequence (P24666 whole entry): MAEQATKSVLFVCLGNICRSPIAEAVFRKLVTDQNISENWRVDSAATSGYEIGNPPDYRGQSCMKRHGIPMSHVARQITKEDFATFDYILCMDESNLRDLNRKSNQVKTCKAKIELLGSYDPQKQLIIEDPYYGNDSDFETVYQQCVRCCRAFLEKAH

[2] = target: T2, Tyrosine-protein phosphatase non-receptor type 1 (Homo sapiens, UniProt P18031); assay: Inhibition of recombinant human PTP1B using pNPP as substrate preincubated with compound for 10 mins followed by substrate addition and measured by absorbance based assay
T2 sequence (P18031 whole entry): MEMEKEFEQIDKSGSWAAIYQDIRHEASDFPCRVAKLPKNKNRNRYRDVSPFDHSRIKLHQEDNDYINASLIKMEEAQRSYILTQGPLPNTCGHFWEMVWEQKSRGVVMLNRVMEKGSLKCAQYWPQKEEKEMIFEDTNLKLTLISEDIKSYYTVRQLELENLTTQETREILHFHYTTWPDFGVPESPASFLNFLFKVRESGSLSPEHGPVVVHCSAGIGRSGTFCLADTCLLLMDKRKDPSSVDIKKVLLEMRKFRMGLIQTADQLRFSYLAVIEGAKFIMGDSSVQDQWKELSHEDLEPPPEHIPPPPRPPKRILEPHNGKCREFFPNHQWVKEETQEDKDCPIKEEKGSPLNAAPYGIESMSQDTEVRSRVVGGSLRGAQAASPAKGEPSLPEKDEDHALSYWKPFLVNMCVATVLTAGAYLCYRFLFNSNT

[3] = target: T3, Tyrosine-protein phosphatase non-receptor type 2 (Homo sapiens, UniProt P17706)
T3 sequence (P17706 whole entry): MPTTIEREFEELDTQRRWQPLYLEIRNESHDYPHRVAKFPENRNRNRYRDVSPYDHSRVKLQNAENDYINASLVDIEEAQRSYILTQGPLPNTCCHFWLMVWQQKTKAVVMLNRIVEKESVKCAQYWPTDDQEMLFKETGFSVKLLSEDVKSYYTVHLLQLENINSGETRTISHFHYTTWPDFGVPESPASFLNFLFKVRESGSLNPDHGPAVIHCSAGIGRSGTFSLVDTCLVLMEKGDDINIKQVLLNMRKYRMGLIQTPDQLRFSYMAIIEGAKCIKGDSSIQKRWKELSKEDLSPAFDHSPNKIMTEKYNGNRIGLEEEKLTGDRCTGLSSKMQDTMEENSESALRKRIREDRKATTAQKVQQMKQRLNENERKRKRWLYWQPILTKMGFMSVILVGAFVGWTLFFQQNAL
Description: Inhibition of recombinant human TCPTP

[4] = target: T4, Receptor-type tyrosine-protein phosphatase C (Homo sapiens, UniProt P08575)
T4 sequence (P08575 whole entry): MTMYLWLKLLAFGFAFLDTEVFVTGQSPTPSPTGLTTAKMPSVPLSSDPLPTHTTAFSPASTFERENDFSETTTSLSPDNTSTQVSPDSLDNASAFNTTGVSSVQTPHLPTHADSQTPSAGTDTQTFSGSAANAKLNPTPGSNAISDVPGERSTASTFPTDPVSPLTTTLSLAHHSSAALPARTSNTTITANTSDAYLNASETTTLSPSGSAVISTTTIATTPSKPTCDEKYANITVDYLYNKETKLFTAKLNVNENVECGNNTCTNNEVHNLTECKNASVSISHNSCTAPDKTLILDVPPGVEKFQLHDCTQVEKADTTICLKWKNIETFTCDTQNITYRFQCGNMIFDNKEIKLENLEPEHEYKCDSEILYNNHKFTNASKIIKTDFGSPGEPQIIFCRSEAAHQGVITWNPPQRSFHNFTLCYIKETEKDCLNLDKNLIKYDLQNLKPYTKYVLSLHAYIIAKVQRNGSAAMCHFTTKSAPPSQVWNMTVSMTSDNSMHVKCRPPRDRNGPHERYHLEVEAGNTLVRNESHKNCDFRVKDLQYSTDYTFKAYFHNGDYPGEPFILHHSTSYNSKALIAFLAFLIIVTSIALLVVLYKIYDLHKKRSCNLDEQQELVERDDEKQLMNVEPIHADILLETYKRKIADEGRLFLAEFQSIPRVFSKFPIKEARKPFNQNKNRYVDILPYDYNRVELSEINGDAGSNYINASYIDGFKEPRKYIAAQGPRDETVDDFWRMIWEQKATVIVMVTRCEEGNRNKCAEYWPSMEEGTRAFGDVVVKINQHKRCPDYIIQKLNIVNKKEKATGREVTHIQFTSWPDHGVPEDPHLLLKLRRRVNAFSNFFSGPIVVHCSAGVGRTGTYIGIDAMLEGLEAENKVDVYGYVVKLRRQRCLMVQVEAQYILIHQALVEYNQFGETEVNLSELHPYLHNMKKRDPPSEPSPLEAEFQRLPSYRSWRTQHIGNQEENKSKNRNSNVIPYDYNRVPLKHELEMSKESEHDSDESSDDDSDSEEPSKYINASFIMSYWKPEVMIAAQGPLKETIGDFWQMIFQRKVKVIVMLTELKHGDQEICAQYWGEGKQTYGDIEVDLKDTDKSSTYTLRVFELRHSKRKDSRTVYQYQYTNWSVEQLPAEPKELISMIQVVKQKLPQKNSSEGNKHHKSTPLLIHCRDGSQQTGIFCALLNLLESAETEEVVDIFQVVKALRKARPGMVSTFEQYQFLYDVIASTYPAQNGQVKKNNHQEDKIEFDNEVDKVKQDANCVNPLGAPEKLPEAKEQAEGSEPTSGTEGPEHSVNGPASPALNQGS
Description: Inhibition of recombinant human CD45

SMILES | IC50 [1] [µM] | IC50 [2] [µM] | IC50 [3] [µM] | IC50 [4] [µM]
COc1cc(/C=C2/NC(=O)N(Cc3ccccc3)C2=O)cc(Cl)c1OCc1cccc(C(=O)O)c1 | 5.2 | 8.2 | 12.7 | > 40
COc1cc(/C=C2/NC(=O)N(Cc3ccc(C)cc3)C2=O)ccc1OCc1cccc(C(=O)O)c1 |  |  | 8.3 | > 40

— ChEMBL document CHEMBL5356965, “Discovery and biological evaluation of novel dual PTP1B and ACP1 inhibitors for the treatment of insulin resistance” (Bioorg Med Chem, 2024)
